Source: the supplement of paper PMC10307832

Assays:
Test in all cases: relative viability (nuclei count vs DMSO), 5 days (fraction); higher = more cells survive
Neratinib + Phenformin = compound: CCOc1cc2ncc(C#N)c(Nc3ccc(OCc4ccccn4)c(Cl)c3)c2cc1NC(=O)/C=C/CN(C)C [Neratinib] + N=C(N)NC(=N)NCCc1ccccc1 [Phenformin] (partner 250 µM)
In short: (§1)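 Medians of duplicate plates are given as relative viability. That measure is the nuclei count in treated wells divided by the count in vehicle wells. Counts were taken on 4× images of lung cancer cell lines in 1536-well plates, 5 days after pin-tool dosing the day after seeding with one drug alone or a fixed anchor-drug dose plus five library-drug doses (not always all listed) in √10 steps.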

Neratinib + Lapatinib = compound: CCOc1cc2ncc(C#N)c(Nc3ccc(OCc4ccccn4)c(Cl)c3)c2cc1NC(=O)/C=C/CN(C)C [Neratinib] + CS(=O)(=O)CCNCc1ccc(-c2ccc3ncnc(Nc4ccc(OCc5cccc(F)c5)c(Cl)c4)c3c2)o1 [Lapatinib] (partner 2 µM)
In short: as §1

Neratinib + Olaparib = compound: CCOc1cc2ncc(C#N)c(Nc3ccc(OCc4ccccn4)c(Cl)c3)c2cc1NC(=O)/C=C/CN(C)C [Neratinib] + O=C(c1cc(Cc2n[nH]c(=O)c3ccccc23)ccc1F)N1CCN(C(=O)C2CC2)CC1 [Olaparib] (partner 8 µM)
In short: as §1

Neratinib + Trametinib = compound: CCOc1cc2ncc(C#N)c(Nc3ccc(OCc4ccccn4)c(Cl)c3)c2cc1NC(=O)/C=C/CN(C)C [Neratinib] + CC(=O)Nc1cccc(-n2c(=O)n(C3CC3)c(=O)c3c(Nc4ccc(I)cc4F)n(C)c(=O)c(C)c32)c1 [Trametinib] (partner 0.02 µM)
In short: as §1

| Cell Line | relative viability (Neratinib + Phenformin; first compound 0.01 µM) | relative viability (Neratinib + Phenformin; first compound 0.03162 µM) | relative viability (Neratinib + Phenformin; first compound 0.1 µM) | relative viability (Neratinib + Phenformin; first compound 0.3162 µM) | relative viability (Neratinib + Phenformin; first compound 1 µM) | relative viability (Neratinib + Lapatinib; first compound 0.01 µM) | relative viability (Neratinib + Lapatinib; first compound 0.03162 µM) | relative viability (Neratinib + Lapatinib; first compound 0.1 µM) | relative viability (Neratinib + Lapatinib; first compound 0.3162 µM) | relative viability (Neratinib + Lapatinib; first compound 1 µM) | relative viability (Neratinib + Olaparib; first compound 0.01 µM) | relative viability (Neratinib + Olaparib; first compound 0.03162 µM) | relative viability (Neratinib + Olaparib; first compound 0.1 µM) | relative viability (Neratinib + Olaparib; first compound 0.3162 µM) | relative viability (Neratinib + Olaparib; first compound 1 µM) | relative viability (Neratinib + Trametinib; first compound 0.01 µM) | relative viability (Neratinib + Trametinib; first compound 0.03162 µM) | relative viability (Neratinib + Trametinib; first compound 0.1 µM) | relative viability (Neratinib + Trametinib; first compound 0.3162 µM) | relative viability (Neratinib + Trametinib; first compound 1 µM) |
| --- | --- | --- | --- | --- | --- | --- | --- | --- | --- | --- | --- | --- | --- | --- | --- | --- | --- | --- | --- | --- |
| NCI-H2228 | 0.334 | 0.331 | 0.268 | 0.236 | 0.122 | 1.03 | 1.26 | 1.01 | 0.924 | 0.259 | 0.943 | 0.576 | 0.589 | 0.425 | 0.199 | 0.457 | 0.93 | 0.359 | 0.58 | 0.132 |
| LXF-289 | 0.533 | 0.537 | 0.461 | 0.476 | 0.435 | – | 0.964 | 0.809 | 0.924 | 0.937 | 1.12 | 1.28 | 0.931 | 1.06 | 0.889 | 0.739 | 0.733 | 0.674 | 0.685 | 0.536 |
| NCI-H520 | 0.599 | 0.78 | 0.53 | 0.496 | 0.287 | 1 | 1 | 0.858 | – | 0.682 | 0.303 | 0.321 | – | 0.349 | 0.194 | 0.642 | 0.804 | – | 0.605 | 0.421 |
| NCI-H1395 | 0.461 | 0.484 | 0.462 | 0.428 | 0.388 | 1.02 | 1.54 | 1.11 | 1.22 | 0.784 | – | 0.491 | 0.449 | 0.469 | 0.413 | 1.18 | 1.18 | 1.11 | 1.11 | 0.65 |
| NCI-H2170 | 0.419 | 0.418 | 0.269 | 0.268 | 0.216 | 0.284 | 0.278 | 0.289 | 0.301 | 0.255 | 0.627 | 0.49 | 0.32 | 0.151 | 0.158 | 0.873 | 0.862 | 0.631 | 0.178 | 0.171 |
| NCI-H2023 | 0.434 | 0.451 | 0.362 | 0.323 | 0.298 | 0.888 | 0.804 | 0.758 | 0.878 | 0.723 | 0.448 | 0.415 | 0.365 | 0.42 | 0.386 | 0.594 | 0.491 | 0.371 | 0.43 | 0.399 |
